{"source": "patent US20250195670A1", "about": "“METFORMIN NANOFORMULATIONS AND METHODS OF USE THEREOF” (priority 2022, published 2025)", "key": {"U87MG cells": {"system": "U87MG cells", "assay": "U87MG cell growth (optical density)", "assay_type": "cell-based", "details": "Homo sapiens, U-87 MG", "procedure": "FIGS. 2A-2D provide graphs of U87MG growth at the indicated concentrations of metformin (FIG. 2A), PAMAM-OH (FIG. 2B), PAMAM-OH and metformin (FIG. 2C), and P4-MET (FIG. 2D).\nThe ability of the dendrimers was tested for their ability to deliver metformin to U87MG cells, a human glioma cell line sensitive to metformin. Specifically, U87MG cells were exposed to metformin, PAMAM-OH, PAMAM-OH with metformin, or P4-MET."}, "Ln229 cells": {"system": "Ln229 cells", "assay": "Ln229 cell growth (optical density)", "assay_type": "cell-based", "details": "Homo sapiens, LN-229", "procedure": "FIGS. 3A-3D provide graphs of Ln229 growth at the indicated concentrations of metformin (FIG. 3A), PAMAM-OH (FIG. 3B), PAMAM-OH and metformin (FIG. 3C), and P4-MET (FIG. 3D).\nThe ability of the dendrimers was also tested for their ability to deliver metformin to Ln229 cells, a human glioblastoma cell line sensitive to metformin. Specifically, Ln229 cells were exposed to metformin, PAMAM-OH, PAMAM-OH with metformin, or P4-MET."}, "MGPP3 cells": {"system": "MGPP3 cells", "assay": "MGPP3 cell growth (optical density)", "assay_type": "cell-based", "details": "Mus musculus", "procedure": "FIGS. 4A-4D provide graphs of MGPP3 growth at the indicated concentrations of metformin (FIG. 4A), PAMAM-OH (FIG. 4B), PAMAM-OH and metformin (FIG. 4C), and P4-MET (FIG. 4D).\nThe ability of the dendrimers was also tested for their ability to deliver metformin to MGPP3 cells, a mouse glioblastoma cell line sensitive to metformin. Specifically, MGPP3 cells were exposed to metformin, PAMAM-OH, PAMAM-OH with metformin, or P4-MET."}, "[1]": {"system": "bone marrow-derived macrophages (BMDM)", "assay": "BMDM growth (optical density)", "assay_type": "cell-based", "details": "Mus musculus; BMDM cells, 72 hours", "procedure": "FIGS. 5A-5D provide graphs of bone marrow-derived macrophages (BMDM) growth at the indicated concentrations of metformin (FIG. 5A), PAMAM-OH (FIG. 5B), PAMAM-OH and metformin (FIG. 5C), and P4-MET (FIG. 5D).\nThe ability of the dendrimers was also tested for their ability to deliver metformin to bone marrow-derived macrophages (BMDM). Specifically, BMDM cells were exposed to metformin, PAMAM-OH, PAMAM-OH with metformin, or P4-MET for 72 hours."}, "UNKPC cells": {"system": "UNKPC cells", "assay": "UNKPC cell growth (optical density)", "assay_type": "cell-based", "procedure": "The ability of the dendrimers was also tested for their ability to deliver metformin to UNKPC cells, a pancreatic cancer cell line. Specifically, […] were exposed to metformin, PAMAM-OH, or P4-MET."}, "Panc-1 cells": {"system": "Panc-1 cells", "assay": "Panc-1 cell growth (optical density)", "assay_type": "cell-based", "details": "Homo sapiens", "procedure": "The ability of the dendrimers was also tested for their ability to deliver metformin to Panc-1 cells, a human pancreatic cancer cell line. Specifically, Panc-1 cells were exposed to metformin, PAMAM-OH, and P4-MET."}, "[2]": {"details": "oral metformin; cited from earlier work"}, "[3]": {"details": "in vivo; cited from earlier work"}, "cell cultures": {"system": "cell cultures", "details": "cited from earlier work"}}, "data": [{"smiles": "CN(C)C(=N)NC(=N)N", "note": "[metformin, 1,1-dimethylbiguanide]", "values": [{"measurement": "IC50", "setting": "U87MG cells", "value": 14.4, "unit": "mM"}, {"measurement": "IC50", "setting": "Ln229 cells", "value": 0.99, "unit": "mM"}, {"measurement": "IC50", "setting": "MGPP3 cells", "value": 12.5, "unit": "mM"}, {"measurement": "IC50", "setting": "[1]", "value": 3.53, "unit": "mM"}, {"measurement": "IC50", "setting": "UNKPC cells", "value": 1.64, "unit": "mM"}, {"measurement": "IC50", "setting": "Panc-1 cells", "value": 5.24, "unit": "mM"}, {"measurement": "pharmacological concentrations in patients", "setting": "[2]", "value": "less than 50 μM"}, {"measurement": "gastrointestinal-related side effects, share of patients", "setting": "[3]", "value": "20-30%"}, {"measurement": "typical effective concentration in cell cultures", "setting": "cell cultures", "value": "in the mM range"}]}]}
